Usually fraction unbound stands for free concentration divided by total concentration. Low values mean extensive binding, high ones weak binding. What is called half-life is how long it takes for the measured level to halve.

Data on eleven compounds can be found in ChEMBL document CHEMBL4616584, “Designing around Structural Alerts in Drug Discovery” (J Med Chem, 2020).

A short description of one data set: in vitro. To be noted: human, platelets.
The nature of data set [1]: Half life in potassium phosphate buffer by liquid chromatography-tandem mass spectrometry. Type of data set: physicochemical.
Data set [2] can be described thus: Covalent protein binding in human liver microsomes assessed per mg protein at 50 uM after 60 mins in presence of NADPH by LC-MS/MS method. To be noted: 1 h. Format: ADME, Microsome. On the technique in general: Liver microsomes are a subcellular fraction often used to study metabolism.
Data set [3] in a line: Half life of the compound at pH 7.4. Type of data set: physicochemical.
Data set [4] can be described thus: Half life of the compound in buffer. Type of data set: physicochemical.
The nature of data set [5]: Covalent protein binding in human liver microsomes assessed per mg protein at 10 uM preincubated for 5 mins followed by UDPGA addition and measured after 60 mins by liquid scintillation counting method. Format: ADME, Microsome. Conditions: 1 h.
The nature of data set [6]: Half life of the compound. Type of data set: physicochemical.

Turning to `COC(=O)[C@H](c1ccccc1Cl)N1CCc2sccc2C1` [CLOPIDOGREL], the fraction unbound in the data set “in vitro” was 0.98. In data set [1], `Cc1cccc(Nc2ccccc2C(=O)O)c1C` [MEFENAMIC ACID] gave a half-life of 990 min. In the case of `CN1C(C(=O)Nc2nccs2)=C(O)c2ccccc2S1(=O)=O` [SUDOXICAM], the PB in data set [2] is on record as 1.4 pmol. On to `NC(=O)OCC(C=O)c1ccccc1` (configuration not stated), for which the half-life in data set [3] was less than 0.5 min. With `Cc1cc(OCCCS(C)(=O)=O)cc(C)c1-c1cccc(COc2ccc3c(c2)OC[C@H]3CC(=O)O[C@H]2O[C@@H](C(=O)O)[C@H](O)[C@H](O)[C@@H]2O)c1`, in data set [4], the half-life is 30 min. In the case of `CCCN(CCC)S(=O)(=O)c1ccc(C(=O)O)cc1` [PROBENECID], the half-life in data set [1] was 16.2 min. In data set [5], `CC(C)Cc1ccc(C(C)C(=O)O)cc1` (configuration not stated) [IBUPROFEN] came in with a PB of 1000 to 8600 pmol.

On to `Cc1cnc(NC(=O)C2=C(O)c3ccccc3S(=O)(=O)N2C)s1` [MELOXICAM], for which the PB in data set [2] is listed as 3.6 pmol. In data set [5], `CC(C)Cc1ccc(CC(=O)O)cc1` [IBUFENAC] yielded a PB of 1000 to 8600 pmol. This compound also had a half-life in data set [6] of 66 min. `Cc1ccc(Cl)c(Nc2ccccc2C(=O)O)c1Cl` [MECLOFENAMIC ACID] had a half-life in data set [1] of 1690 min. Consider `Cc1cc(CC(=O)O)n(C)c1C(=O)c1ccc(Cl)cc1` [ZOMEPIRAC], for which the half-life in data set [4] is 30 min.
